Experimental data published in PMC11365428 (The Journal of Biological Chemistry, 2024).
Non-standard residues stand in square brackets, D forms with d. Residues, ends and D or L forms follow the SMILES beside them. pGlu = O=C1CC[C@@H](C(=O)O)N1

How the values were obtained:
[1] = system: putative neuropeptide FF receptor (apNPFFR); experiment: IP1 accumulation assay, CHO-K1 cells transiently expressing putative neuropeptide FF receptor; assay type: cell-based, Aplysia californica; details: 10^-5 M compared with 10^-10 M (control); n = 3; no Gαq cotransfection
Description: To express putative Aplysia receptors transiently in CHO-K1 cells, the cDNAs were subcloned into the pcDNA3.1(+) or pcDNA3.1(+)-FLAG (for ELISA experiments only, see “Cell surface expression analysis by ELISA” section) expression vector. On the day before transfection, the CHO-K1 cells were passaged into 60 mm diameter tissue culture–treated dishes, and the transfection experiments were performed when the cells were grown to 70 to 90% confluence. CHO-K1 cells were transfected with the cDNA plasmid constructs using Turbofect Transfection reagent (Thermo Fisher Scientific, R0531), following the manufacturer’s instructions. In brief, 4 μg of the putative receptor plasmids [in pcDNA3.1(+) or pcDNA3.1(+)-FLAG] were mixed with 400 μl of Opti-MEM (Gibco, 11058021), followed by the addition of 15 μl of TurboFect Transfection reagent and incubated at room temperature for 15 min. The DNA/TurboFect mixture dropwise was then added to the dish, and the cells were incubated at 37 °C in a humidified incubator containing 5% CO2 overnight.
The next day, transfected cells were trypsinized and reseeded in an opaque white 96-well half-area (Corning, 3688) or 384-well tissue culture–treated plates (Corning, 3570) at a density of 20,000 cells/well in F-12K and 10% FBS and incubated at 37 °C in a humidified incubator containing 5% CO2 overnight. On the third day, the activation of the putative receptors was detected by monitoring intracellular IP1 concentration using an IP-One Gq kit (Cisbio, 62IPAPEB) in Tecan Spark. Except for using 0.5x reagent, all other procedures were performed following the manufacturer’s instructions. IP1 accumulation assay measures the accumulation of IP1, which is hydrolyzed from the second messenger, and inositol triphosphate. Inositol triphosphate is generated by the Gαq pathway when a GPCR is activated by an appropriate ligand.

apTKRPR-B T391 = apTKRPR-B T391 (Aplysia californica, UniProt A0AAU7STS1, DEL392-447); experiment: IP1 accumulation assay, C-terminal truncate apTKRPR-B T391; assay type: cell-based
Chain of apTKRPR-B T391 (A0AAU7STS1 entry or part of it, stated change not applied): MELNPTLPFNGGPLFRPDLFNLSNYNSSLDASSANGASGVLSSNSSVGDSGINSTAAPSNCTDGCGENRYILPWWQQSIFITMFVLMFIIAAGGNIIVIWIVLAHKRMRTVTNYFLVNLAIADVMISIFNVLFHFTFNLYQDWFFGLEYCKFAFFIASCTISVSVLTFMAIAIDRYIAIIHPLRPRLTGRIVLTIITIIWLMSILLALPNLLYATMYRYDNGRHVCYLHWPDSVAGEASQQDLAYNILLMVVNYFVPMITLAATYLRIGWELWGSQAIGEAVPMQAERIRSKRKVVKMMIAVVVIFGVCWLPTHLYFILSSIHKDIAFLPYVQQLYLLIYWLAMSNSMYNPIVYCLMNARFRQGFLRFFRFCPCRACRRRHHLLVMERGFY
Description: To express putative Aplysia receptors transiently in CHO-K1 cells, the cDNAs were subcloned into the pcDNA3.1(+) or pcDNA3.1(+)-FLAG (for ELISA experiments only, see “Cell surface expression analysis by ELISA” section) expression vector. On the day before transfection, the CHO-K1 cells were passaged into 60 mm diameter tissue culture–treated dishes, and the transfection experiments were performed when the cells were grown to 70 to 90% confluence. CHO-K1 cells were transfected with the cDNA plasmid constructs using Turbofect Transfection reagent (Thermo Fisher Scientific, R0531), following the manufacturer’s instructions. In brief, 4 μg of the putative receptor plasmids [in pcDNA3.1(+) or pcDNA3.1(+)-FLAG] were mixed with 400 μl of Opti-MEM (Gibco, 11058021), followed by the addition of 15 μl of TurboFect Transfection reagent and incubated at room temperature for 15 min. […]
The next day, transfected cells were trypsinized and reseeded in an opaque white 96-well half-area (Corning, 3688) or 384-well tissue culture–treated plates (Corning, 3570) at a density of 20,000 cells/well in F-12K and 10% FBS and incubated at 37 °C in a humidified incubator containing 5% CO2 overnight. On the third day, the activation of the putative receptors was detected by monitoring intracellular IP1 concentration using an IP-One Gq kit (Cisbio, 62IPAPEB) in Tecan Spark. […]

apTKRPR-A = molecular target: T1, apTKRPR-A (Aplysia californica, UniProt A0AAU7SSZ1); experiment: Receptor desensitization assay, protocol 1 (prolonged agonist exposure), apTKRPR-A; assay type: cell-based; details: 10 μM, 2, 5, 10, 15, 30 and 60 min at 37 °C; fold increase over basal; n = 3
T1 sequence (A0AAU7SSZ1 1-398): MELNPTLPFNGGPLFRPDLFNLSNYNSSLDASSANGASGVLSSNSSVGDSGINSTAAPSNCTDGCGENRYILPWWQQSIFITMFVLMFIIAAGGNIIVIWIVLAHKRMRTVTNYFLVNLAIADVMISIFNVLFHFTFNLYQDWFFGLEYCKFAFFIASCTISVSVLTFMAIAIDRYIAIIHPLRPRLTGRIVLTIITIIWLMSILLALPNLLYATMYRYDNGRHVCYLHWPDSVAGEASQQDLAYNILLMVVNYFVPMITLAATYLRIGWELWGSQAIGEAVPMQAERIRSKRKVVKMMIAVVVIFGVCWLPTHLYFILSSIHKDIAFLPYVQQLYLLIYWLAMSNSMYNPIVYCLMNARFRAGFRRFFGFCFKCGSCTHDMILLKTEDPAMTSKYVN
Description: Therefore, we adopted two protocols to study the desensitization of apTKRPRs. The protocols were performed using a procedure modified from previous work ([87], [88], [89]).
Protocol 1 ([87], [88]): Under continuous (prolonged) stimulation with an agonist, we examined agonist-induced desensitization by quantifying the rate of IP1 accumulation. Specifically, CHO-K1 cells transiently expressing pcDNA3.1-apTKRPRs were incubated in the absence or presence of 10 μM (saturating concentration) apTKRP-2b for the different duration (2, 5, 10, 15, 30, and 60 min) at 37 °C, and intracellular concentrations of IP1 accumulation were measured. Data are presented as fold increase over basal IP1 concentration (Fig. S10).

Question: Which “IP1 response of putative apNPFFR in screening” value [1] does the source give for `CC(C)C[C@H](NC(=O)[C@H](Cc1c[nH]cn1)NC(=O)[C@@H]1CCCN1C(=O)[C@@H]1CCC(=O)N1)C(=O)NCC(=O)N[C@@H](Cc1ccccc1)C(=O)N[C@@H](Cc1c[nH]cn1)C(=O)NCC(=O)N[C@@H](CO)C(=O)N[C@@H](CCCNC(=N)N)C(N)=O` [apTKRP-2b] ([pGlu]PHLGFHGSR-NH2) here?
Answer: did not respond

Question: What about the EC50 (apTKRPR-B T391) of the same compound?
Answer: 21.4 nM

Question: What about the “time course of IP1 accumulation, apTKRPR-A (protocol 1)” value (apTKRPR-A) of the same compound?
Answer: initially increased and then reached a plateau
